This passage reports IC50 results from US20250179103A1, “6-OXODECAHYDROPYRROLO[1,2-A][1,5]DIAZOCINE AND 6-OXODECAHYDRO-4H-PYRROLO[2,1-D][1,5]THIAZOCINE DERIVATIVES AS STAT3 AND STAT6 MODULATORS FOR THE TREATMENT OF CANCER AND INFLAMMATORY CONDITIONS” (Recludix Pharma, Inc., priority 2022, published 2025).

The target of test [1] is T1, Recombinant STAT3 protein (STAT3(G127-I722)) (Homo sapiens, UniProt P40763).
T1 construct: Recombinant STAT3 protein (STAT3(G127-I722))
In words: STAT3 Fluorescence Polarization (FP) Assay. It is filed as binding. As to conditions: STAT3(G127-I722) 25 nM, probe 5-FAM-GpYLPQTV-NH2 2 nM, 45-minute incubation. The essentials:
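Fluorescence polarization after a 45-min room-temperature incubation measured compound displacement of a 2 nM fluorescein-labelled phosphotyrosine peptide (5-FAM-GpYLPQTV-NH2) from 25 nM recombinant STAT3(G127-I722). Buffer was 10 mM HEPES pH 7.4 with 1% DMSO final. IC50s were fitted by nonlinear regression of mP against log concentration.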

The target in test [2] is T2, Recombinant STAT6 protein (STAT6(W123-T658)) (Homo sapiens, UniProt P42226).
T2 construct: Recombinant STAT6 protein (STAT6(W123-T658))
T2 sequence (P42226 123-658): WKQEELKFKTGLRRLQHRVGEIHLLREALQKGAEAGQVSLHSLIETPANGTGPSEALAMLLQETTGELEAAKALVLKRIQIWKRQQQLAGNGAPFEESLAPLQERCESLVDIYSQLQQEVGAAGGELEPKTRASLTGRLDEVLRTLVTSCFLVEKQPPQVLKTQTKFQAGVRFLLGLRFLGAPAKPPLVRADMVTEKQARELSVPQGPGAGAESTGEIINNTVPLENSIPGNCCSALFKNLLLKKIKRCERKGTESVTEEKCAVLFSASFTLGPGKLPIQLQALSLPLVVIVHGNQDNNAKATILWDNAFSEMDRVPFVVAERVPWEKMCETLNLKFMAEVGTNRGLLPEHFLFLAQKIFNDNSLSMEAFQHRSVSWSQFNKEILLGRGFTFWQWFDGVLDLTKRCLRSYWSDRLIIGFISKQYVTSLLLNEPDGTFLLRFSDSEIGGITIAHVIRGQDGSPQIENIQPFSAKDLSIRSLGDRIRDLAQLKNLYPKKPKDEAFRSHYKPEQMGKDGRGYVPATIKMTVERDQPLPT
In words: STAT6 Fluorescence Polarization (FP) Assay. The conditions noted are these: STAT6(W123-T658) 250 nM, probe 5-FAM-ApYKPFQDLI-NH2 2 nM, 45-minute incubation. It is filed as binding. The essentials:
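Displacement of a fluorescent phosphotyrosine peptide (5-FAM-ApYKPFQDLI-NH2, 2 nM) from STAT6(W123-T658) (250 nM), 1% DMSO, pH 7.4 HEPES buffer. After 45 min at room temperature, polarization (mP) was plotted versus log compound concentration and fitted by nonlinear regression to give IC50.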

T1 sequence (P40763 127-722): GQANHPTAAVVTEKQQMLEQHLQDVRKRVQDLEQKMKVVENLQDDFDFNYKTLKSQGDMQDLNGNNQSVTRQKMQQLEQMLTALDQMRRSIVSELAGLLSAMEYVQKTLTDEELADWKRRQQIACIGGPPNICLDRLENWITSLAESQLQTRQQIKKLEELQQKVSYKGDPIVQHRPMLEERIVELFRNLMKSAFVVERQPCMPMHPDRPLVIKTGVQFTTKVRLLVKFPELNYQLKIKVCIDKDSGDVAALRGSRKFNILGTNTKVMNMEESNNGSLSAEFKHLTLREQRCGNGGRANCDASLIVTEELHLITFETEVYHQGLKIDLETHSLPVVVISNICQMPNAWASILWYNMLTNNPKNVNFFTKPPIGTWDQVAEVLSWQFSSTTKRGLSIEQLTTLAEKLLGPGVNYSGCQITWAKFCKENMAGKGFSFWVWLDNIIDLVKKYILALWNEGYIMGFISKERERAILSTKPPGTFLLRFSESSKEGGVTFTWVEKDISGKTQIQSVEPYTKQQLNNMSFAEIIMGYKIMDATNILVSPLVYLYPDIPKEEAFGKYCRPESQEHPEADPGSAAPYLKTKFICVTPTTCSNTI

Broadly, the IC50 is the concentration at which inhibition is half-maximal. With `O=C(N[C@H]1CN(c2ccccn2)C[C@H]2CC[C@@H](C(=O)N3CCOCC3)N2C1=O)c1ccc2ccc(C(F)P(=O)(O)O)cc2c1` (stereo partly drawn) [Compound 393, (fluoro(7-(((4S,7S,9aR)-7-(morpholine-4-carbonyl)-5-oxo-2-(pyridin-2-yl)octahydro-1H-pyrrolo[1,2-a][1,4]diazepin-4-yl)carbamoyl)naphthalen-2-yl)methyl) phosphonic acid], the IC50 in test [1] is more than 10 µM; in test [2], more than 30 µM.
The corresponding values for `O=C(N[C@H]1CN(Cc2ccn3ccnc3c2)CC[C@H]2CC[C@@H](C(=O)N3CC(c4cccnc4)C3)N2C1=O)c1cc2cc(C(F)(F)P(=O)(O)O)ccc2s1` [Compound 273, (difluoro(2-(((5S,8S,10aR)-3-(imidazo[1,2-a]pyridin-7-ylmethyl)-6-oxo-8-(3-(pyridin-3-yl)azetidine-1-carbonyl)decahydropyrrolo[1,2-a][1,5]diazocin-5-yl)carbamoyl)benzo[b]thiophen-5-yl)methyl)phosphonic acid] are not above 0.1 µM and 3 to 30 µM.
The matching figures for `CC(=O)N1CC(N(C)C(=O)[C@@H]2CC[C@@H]3CCN(C(C)=O)C[C@H](NC(=O)c4cc5cc(C(F)(F)P(=O)(O)O)ccc5[nH]4)C(=O)N32)C1` [Compound 170, ((2-(((5S,8S,10aR)-3-acetyl-8-((1-acetylazetidin-3-yl)(methyl)carbamoyl)-6-oxodecahydropyrrolo[1,2-a][1,5]diazocin-5-yl)carbamoyl)-1H-indol-5-yl)difluoromethyl)phosphonic acid]: 1 to 10 µM and 0.3 to 3 µM.
The corresponding values for `O=C(N[C@H]1CN(Cc2ccccc2-n2cncn2)CC[C@H]2CC[C@@H](C(=O)N3CC(c4cccnc4)C3)N2C1=O)c1cc2cc(C(F)(F)P(=O)(O)O)ccc2s1` [Compound 402, ((2-(((5S,8S,10aR)-3-(2-(1H-1,2,4-triazol-1-yl)benzyl)-6-oxo-8-(3-(pyridin-3-yl)azetidine-1-carbonyl)decahydro-pyrrolo[1,2-a][1,5]diazocin-5-yl)carbamoyl)benzo[b]thiophen-5-yl)difluoromethyl) phosphonic acid] are not above 0.1 µM and 3 to 30 µM.
Regarding `CC(=O)N1CC[C@H]2CC[C@@H](C(=O)N[C@H]3CN(S(C)(=O)=O)C[C@@H]3O)N2C(=O)[C@@H](NC(=O)c2cc3cc(C(F)(F)P(=O)(O)O)ccc3s2)C1` [Compound 6, ((2-(((5S,8S,10aR)-3-acetyl-8-(((3S,4S)-4-hydroxy-1-(methylsulfonyl)pyrrolidin-3-yl)carbamoyl)-6-oxodecahydropyrrolo[1,2-a][1,5]diazocin-5-yl)carbamoyl)benzo[b]thiophen-5-yl)difluoromethyl)phosphonic Acid], the results for the IC50 in test [1] and in test [2] were 1 to 10 µM and 0.3 to 3 µM, respectively.
The matching figures for `CC(=O)N1CC[C@H]2CC[C@@H](C(=O)N(C)c3ccccc3)N2C(=O)[C@@H](NC(=O)/C(C)=C/c2cccc(C(F)(F)P(=O)(O)O)c2)C1` [Compound 45, ((3-((E)-3-(((5S,8S,10aR)-3-acetyl-8-(methyl(phenyl)carbamoyl)-6-oxodecahydropyrrolo[1,2-a][1,5]diazocin-5-yl)amino)-2-methyl-3-oxoprop-1-en-1-yl)phenyl)difluoromethyl)phosphonic acid]: more than 10 µM and more than 30 µM.
The matching figures for `CCN1CC[C@H](NC(=O)c2cc3cc(C(F)(F)P(=O)(O)O)ccc3s2)C(=O)N2[C@H](CC[C@H]2C(=O)N2CC(c3cccnc3)C2)C1` [Compound 226, ((2-(((5S,8S,10aR)-2-ethyl-6-oxo-8-(3-(pyridin-3-yl)azetidine-1-carbonyl)decahydropyrrolo[1,2-a][1,4]diazocin-5-yl)carbamoyl)benzo[b]thiophen-5-yl)difluoromethyl)phosphonic acid]: not above 0.1 µM and 0.3 to 3 µM.
The corresponding values for `O=C(N[C@H]1CN(C(=O)NCC23CCN(CC2)CC3)CC[C@H]2CC[C@@H](C(=O)N3CC(c4cccnc4)C3)N2C1=O)c1cc2cc(C(F)(F)P(=O)(O)O)ccc2s1` [Compound 401, (difluoro(2-(((5S,8S, 10aR)-6-oxo-8-(3-(pyridin-3-yl)azetidine-1-carbonyl)-3-((quinuclidin-4-ylmethyl)carbamoyl)decahydropyrrolo [1,2-a][1,5]diazocin-5-yl)carbamoyl)benzo[b]thiophen-5-yl)methyl) phosphonic acid] are not above 0.1 µM and 3 to 30 µM.
As for `CC(=O)N1CC[C@H]2CC[C@@H](C(=O)N(C)C)N2C(=O)[C@@H](NC(=O)c2cc3cc(C(F)(F)P(=O)(O)O)ccc3[nH]2)C1` [Compound 29, ((2-(((5S,8S,10aR)-3-acetyl-8-(dimethylcarbamoyl)-6-oxodecahydropyrrolo[1,2-a][1,5]diazocin-5-yl)carbamoyl)-1H-indole-5-yl)difluoromethyl)phosphonic acid], the IC50 in test [1] fell in the range of 1 to 10 µM; in test [2], 0.3 to 3 µM.
Consider `N#CC1CN(C(=O)C2CCC3CNCCC(NC(=O)c4ccc5ccc(C(F)(F)P(=O)(O)O)cc5c4)C(=O)N32)CC1c1ccccc1` (mixture of isomers) [Compound 211, ((7-(((5S,8S,10aR)-8-((rel-trans)-3-cyano-4-phenylpyrrolidine-1-carbonyl)-6-oxodecahydropyrrolo[1,2-a][1,4]diazocin-5-yl)carbamoyl)naphthalen-2-yl)difluoromethyl)phosphonic acid], for which the IC50 in test [1] was 1 to 10 µM; in test [2], not above 0.3 µM.
With `CC(=O)N1CC[C@H]2CC[C@@H](C(=O)Nc3ccc4c(cnn4C)c3)N2C(=O)[C@@H](NC(=O)c2cc3cc(C(F)(F)P(=O)(O)O)ccc3s2)C1` [Compound 161, ((2-(((5S,8S,10aR)-3-acetyl-8-((1-methyl-1H-indazol-5-yl)carbamoyl)-6-oxodecahydropyrrolo[1,2-a][1,5]diazocin-5-yl)carbamoyl)benzo[b]thiophen-5-yl)difluoromethyl)phosphonic acid], the IC50 is 1 to 10 µM in test [1] and 0.3 to 3 µM in test [2].
The corresponding values for `CC(=O)N1CC[C@H]2CC[C@@H](C(=O)Nc3cnc(S(C)(=O)=O)nc3)N2C(=O)[C@@H](NC(=O)c2cc3cc(C(F)(F)P(=O)(O)O)ccc3s2)C1` [Compound 94, ((2-(((5S,8S,10aR)-3-acetyl-8-((2-(methylsulfonyl)pyrimidin-5-yl)carbamoyl)-6-oxodecahydropyrrolo[1,2-a][1,5]diazocin-5-yl)carbamoyl)benzo[b]thiophen-5-yl)difluoromethyl)phosphonic acid] are 1 to 10 µM and 0.3 to 3 µM.
The corresponding values for `Cc1ccc2onc(C(=O)N3CC[C@H]4CC[C@@H](C(=O)N5C[C@@H](C#N)[C@H](c6ccccc6)C5)N4C(=O)[C@@H](NC(=O)c4ccc5ccc(C(F)(F)P(=O)(O)O)cc5c4)C3)c2c1` (single isomer, unassigned) [Compound 375] are 1 to 10 µM and not above 0.3 µM.
The corresponding values for `CC(=O)N1CC[C@H]2CC[C@@H](C(=O)N(Cc3ccccc3)c3ccccc3)N2C(=O)[C@@H](NC(=O)c2cc3cc(C(F)(F)P(=O)(O)O)ccc3[nH]2)C1` [Compound 56, ((2-(((5S,8S,10aR)-3-acetyl-8-(benzyl(phenyl)carbamoyl)-6-oxodecahydropyrrolo[1,2-a][1,5]diazocin-5-yl)carbamoyl)-1H-indol-5-yl)difluoromethyl)phosphonic acid] are 1 to 10 µM and 0.3 to 3 µM.
For `CC(=O)N1CC[C@H]2CC[C@@H](C(=O)N(C)c3ccc4nnccc4c3)N2C(=O)[C@@H](NC(=O)c2ccc3cnc(C(F)(F)P(=O)(O)O)cc3c2)C1` [Compound 119, ((6-(((5S,8S,10aR)-3-acetyl-8-(cinnolin-6-yl(methyl)carbamoyl)-6-oxodecahydropyrrolo[1,2-a][1,5]diazocin-5-yl)carbamoyl)isoquinolin-3-yl)difluoromethyl)phosphonic acid], the IC50 in test [1] was more than 10 µM; in test [2], 0.3 to 3 µM.
The matching figures for `CC(=O)N1CC[C@H]2CC[C@@H](C(=O)Nc3ccc(-c4ccccc4)cc3CC#N)N2C(=O)[C@@H](NC(=O)c2cc3cc(C(F)(F)P(=O)(O)O)ccc3s2)C1` [Compound 176, ((2-(((5S,8S,10aR)-3-acetyl-8-((3-(cyanomethyl)-[1,1′-biphenyl]-4-yl)carbamoyl)-6-oxodecahydropyrrolo[1,2-a][1,5]diazocin-5-yl)carbamoyl)benzo[b]thiophen-5-yl)difluoromethyl)phosphonic acid]: 0.1 to 1 µM and 0.3 to 3 µM.
